# Earlier results, collected in patent publication US6379615B1, “Methods of sterilizing articles” (St. Jude Medical, Inc., priority 2000, dated 2002).
# Settings: ethanol at about 70 percent by weight; cited from earlier work
structure (smiles),measurement,value
CCO [ethanol],bactericidal effect of ethanol alone,only mildly bactericidal
